# The source made the active and inactive calls. The calls are words filed in the database; no cut-off is given here.
# What was measured:
# Assay type in all cases: functional
# Staphylococcus aureus = experiment: Antimicrobial activity against Staphylococcus aureus ATCC 6538; settings: for MIC: Staphylococcus aureus, ATCC 6538; on IZ: test concentration or dose not given here
# Bacillus subtilis = experiment: Antimicrobial activity against Bacillus subtilis ATCC 6051; on IZ: test concentration or dose not given here
# Escherichia coli = experiment: Antimicrobial activity against Escherichia coli ATCC 11229; on IZ: test concentration or dose not given here
# Candida maltosa = experiment: Antimicrobial activity against Candida maltosa; on IZ: test concentration or dose not given here
Compound,Activity (Bacillus subtilis),inhibition zone (IZ) (Escherichia coli),Activity (Candida maltosa),Activity (Staphylococcus aureus),Activity (Escherichia coli),also measured
C=C(C)C1CC(=O)c2cc(Br)ccc2O1 (stereo not given),inactive,8 mm,inactive,–,–,inhibition zone (IZ) (Staphylococcus aureus): 16 mm
C=C(C)C1CC(=O)c2cc(Cl)ccc2S1 (stereo not given),inactive,–,inactive,inactive,inactive,–
NYSTATIN,–,–,–,–,–,inhibition zone (IZ) (Candida maltosa): 28 mm
C=CC1CC(=O)c2ccccc2S1 (stereo not given),inactive,–,–,inactive,inactive,inhibition zone (IZ) (Candida maltosa): 6 mm
C=C(C)C1CC(=O)c2cc(Cl)ccc2N1C(=O)OC (stereo not given),inactive,–,inactive,inactive,inactive,–
C=CC1CC(=O)c2c(Cl)cc(Cl)cc2N1C(=O)OC (stereo not given),inactive,–,inactive,inactive,inactive,–
C=CC1CC(=O)c2cc(Br)ccc2N1C(=O)OC (stereo not given),inactive,–,inactive,inactive,inactive,–
C/C=C/C1CC(=O)c2cc(Br)ccc2O1 (stereo not given),inactive,9 mm,inactive,inactive,–,–
C=CC1CC(=O)c2cc(Br)ccc2O1 (stereo not given),–,–,–,–,–,MIC (Staphylococcus aureus): 5.62 µg/mL
C=C(C)C1CC(=O)c2cc(Cl)ccc2O1 (stereo not given),inactive,9 mm,inactive,–,–,inhibition zone (IZ) (Staphylococcus aureus): 17 mm
C=CC1CC(=O)c2cc(Cl)ccc2S1 (stereo not given),inactive,–,–,inactive,inactive,inhibition zone (IZ) (Candida maltosa): 6 mm
C/C=C/C1CC(=O)c2cc(Cl)ccc2O1 (stereo not given),inactive,10 mm,inactive,inactive,–,–
C=CC1CC(=O)c2cc(F)ccc2N1C(=O)OC (stereo not given),inactive,–,inactive,inactive,inactive,–
C=CC1CC(=O)c2cc(Cl)ccc2O1 (stereo not given),–,17 mm,–,–,–,"inhibition zone (IZ) (Staphylococcus aureus): 40 mm; MIC (Staphylococcus aureus): 7.3 µg/mL; inhibition zone (IZ) (Bacillus subtilis): 29 mm; MIC (Bacillus subtilis; Bacillus subtilis, ATCC 6051): 4.17 µg/mL; MIC (Escherichia coli; Escherichia coli, ATCC 11229): 4.17 µg/mL; inhibition zone (IZ) (Candida maltosa): 40 mm"
C/C=C(\C)C1CC(=O)c2cc(Cl)ccc2O1 (stereo not given),inactive,–,inactive,inactive,inactive,–
C=CC1CC(=O)c2ccccc2O1 (stereo not given),inactive,–,inactive,inactive,inactive,–
C=CC1CC(=O)c2cc(Cl)ccc2N1C(=O)OC (stereo not given),inactive,–,inactive,inactive,inactive,–
C=C(C)C1CC(=O)c2ccccc2O1 (stereo not given),inactive,10 mm,inactive,inactive,–,–
C=C(C)C1CC(=O)c2ccccc2S1 (stereo not given),inactive,–,inactive,inactive,inactive,–
CC1(C)S[C@@H]2[C@H](NC(=O)[C@H](N)c3ccccc3)C(=O)N2[C@H]1C(=O)O [AMPICILLIN],–,19 mm,–,–,–,inhibition zone (IZ) (Staphylococcus aureus): 27 mm; inhibition zone (IZ) (Bacillus subtilis): 25 mm
C/C=C(\C)C1CC(=O)c2cc(Br)ccc2O1 (stereo not given),inactive,–,inactive,inactive,inactive,–

# Reference: ChEMBL document CHEMBL1140199, “Synthesis and antimicrobial activity of 2-alkenylchroman-4-ones, 2-alkenylthiochroman-4-ones and 2-alkenylquinol-4-ones” (2008)
